Data from patent US10385007B2, “Monamine and monoamine derivatives as inhibitors of leukotriene A4 hydrolase” (Celtaxsys, Inc., priority 2016, dated 2019).
Read-outs that look alike come from different tables or passages of the source.

Columns and labels:
[1] = molecular target: T1, recombinant human LTA4 hydrolase (Homo sapiens, UniProt P09960); assay: LTA4 hydrolase homogeneous time resolved fluorescence (HTRF) assay; format: biochemical
T1 sequence (P09960 1-611): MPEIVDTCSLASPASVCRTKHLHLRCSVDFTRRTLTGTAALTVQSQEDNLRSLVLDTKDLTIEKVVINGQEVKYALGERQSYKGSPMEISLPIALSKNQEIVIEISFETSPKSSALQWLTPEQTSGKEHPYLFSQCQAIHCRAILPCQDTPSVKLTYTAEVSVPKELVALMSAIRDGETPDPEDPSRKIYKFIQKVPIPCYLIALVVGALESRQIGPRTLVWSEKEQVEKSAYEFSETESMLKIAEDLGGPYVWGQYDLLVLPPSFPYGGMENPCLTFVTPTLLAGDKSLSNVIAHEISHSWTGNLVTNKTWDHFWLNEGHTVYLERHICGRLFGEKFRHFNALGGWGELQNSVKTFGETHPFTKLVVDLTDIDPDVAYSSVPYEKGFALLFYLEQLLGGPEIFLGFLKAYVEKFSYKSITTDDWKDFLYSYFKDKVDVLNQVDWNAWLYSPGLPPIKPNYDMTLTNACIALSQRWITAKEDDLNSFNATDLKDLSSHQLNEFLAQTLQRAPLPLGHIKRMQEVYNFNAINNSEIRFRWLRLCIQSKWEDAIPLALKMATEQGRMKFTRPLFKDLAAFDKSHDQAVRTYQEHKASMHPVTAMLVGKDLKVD
Experimental: Compounds of the invention were tested in the LTA4 hydrolase homogeneous time resolved fluorescence (HTRF) assay to determine their ability to inhibit the hydrolysis of LTA4 to LTB4. The assay analyzes the amount of LTB4 produced.
LTA4 HTRF assay is a two-step assay involving enzymatic conversion of LTA4 to LTB4, and subsequent quantification of LTB4, product with HTRF assay.
The enzymatic conversion of LTA4 to LTB4 was performed in 384-well plates at ambient temperature in a reaction mixture containing 50 mM HEPES (pH 7.5), 0.5% BSA (fatty acid free), 18 nM recombinant human LTA4 hydrolase, 150 nM LTA4, 1% DMSO in the absence or presence of a compound of the invention. Reaction was stopped after 10 minutes incubation by diluting the incubation mixture 10-fold in 50 mM phosphate, 0.1% casein buffer (pH 7.0).
LTB4 formed was quantified with the HTRF assay in which free LTB4 competes with LTB4-XL665 conjugate (acceptor) for anti-LTB4 monoclonal antibody labeled with Europium cryptate (donor), thereby inhibiting the fluorescence energy transfer.
The LTB4 HTRF 384-well assay was carried out by incubating LTB4 samples or standards with LTB4-XL665 conjugate (7.5 ng/well) and anti-LTB4 monoclonal antibody-Europium cryptate conjugate (0.5 ng/well) in 50 mM phosphate, 0.4 M KF and 0.1% casein, buffer (pH 7.0) for two hours at ambient temperature. Plates were read in a RubyStar plate reader (BmG Labtechnologies Inc., NC) simultaneously at 620 nm and 665 nm to obtain signal ratios of 665 nm/620 nm. Results of energy transfer were expressed as delta F (%) which equaled [(signal ratio of sample-signal ratio of negative control)/(signal ratio of negative control)]×100%. Negative controls were control samples without LTB4 or LTB4-XL665.
Sample LTB4 concentrations were calculated from the LTB4 standard curve using the 4-parameter fit equation. For determination IC50 values for a particular compound of the invention, eight serially diluted compound concentrations (at 1:3.16 dilution) were used in this assay. Controls without a compound of the invention or with a reference compound were run parallel in the same assay plate.

[2] = molecular target: T2, LTA4 hydrolase peptidase activity (Homo sapiens, UniProt P09960); assay: Peptidase assay (hydrolysis of L-alanine-p-nitroanilide); format: biochemical; conditions: 29 nM enzyme, 1 mM L-alanine-p-nitroanilide, 1 hour
T2 sequence (P09960 1-611): T1 sequence (P09960 1-611)
Experimental: Inhibition of peptidase activity was measured for the compounds of the invention by using methods similar to those described in Kull, F. et al., The Journal of Biological Chemistry 1999, 274 (49): 34683-34690.
In brief, the enzyme (29 nM) was incubated with L-alanine-p-nitroanilide (1 mM) in 50 mM HEPES (pH 7.5), 100 mM KCL, 1% DMSO in the absence or presence of a compound of the invention for 1 hour at ambient temperature. Reaction was terminated by addition of acetic acid (1%). Formation of colored nitro-aniline was measured by the increase in absorbance at 405 nm in a Victor 2 plate reader (Wallac). Spontaneous hydrolysis of the substrate was corrected for by subtracting the absorbance of control incubations without enzyme.

[3] = tested on: LTB4 production in human whole blood; assay: Whole blood assay (LTB4 release upon calcium ionophore, ELISA), human; format: cell-based; conditions: production of LTB4 in whole blood, calcium ionophore stimulation
Experimental: Compounds of the invention were tested for their ability as inhibitors of LTA4 hydrolase in a whole blood assay using human, mouse, rat or dog whole blood in a manner similar to that described in Penning, T. D. et al., J. Med. Chem. (2000), 43(4): 721-735. In this assay, compounds were tested for their ability to inhibit LTB4 release upon stimulation with calcium ionophore. The LTB4 levels in supernatants were measured by ELISA.

[4] = inhibition of LTA4 to LTB4 hydrolysis, 18 nM enzyme, 150 nM LTA4, 10 minutes, read-out: Hydrolase IC50

Row | Compound | IC50 [1, 4] | IC50 [2] | IC50 [3] | IC50 [1]
1 | CN(CCOc1ccc(Cc2ccccc2)cc1)Cc1ccccc1Oc1ccc(C(=O)O)cc1 [Example 4, [N-2-(4-benzylphenoxy)ethyl]-N-methyl-(2-aminomethylphenoxy)-4-benzoic acid] | 100 nM | 32 nM | 370 nM | –
2 | NCCc1ccc(Oc2ccc(Cc3ccccc3)cc2)cc1 [Example 3, 4-benzylphenoxy-4-phenylethylamine] | – | – | 89 nM | 44 nM
3 | NCc1ccc(Oc2ccc(Cc3ccccc3)cc2)cc1 [Example 5, 4-(4-benzylphenoxy)benzylamine] | 270 nM | – | 150 nM | –
4 | NC(CO)Cc1ccc(Oc2ccc(Cc3ccccc3)cc2)cc1 (stereo not shown) [Example 10, 3-[4-(4-benzylphenoxy)phenyl]-2-aminopropanol] | 260 nM | – | 910 nM | –
5 | CCOC(=O)C(N)Cc1ccc(Oc2ccc(Cc3ccccc3)cc2)cc1 (stereo not shown) [Example 9, ethyl 3-[4-(4-benzylphenoxy)phenyl]-2-aminopropanoate] | 130 nM | – | 350 nM | –
6 | NCCc1ccc(OCc2ccc(-c3ccccc3)cc2)cc1 [Example 2, (4-phenylphenyl-1-methoxy)-4-phenylethylamine] | – | – | 47 nM | 41 nM
7 | NC(Cc1ccc(Oc2ccc(Cc3ccccc3)cc2)cc1)C(=O)O (stereo not shown) [Example 7, 3-[4-(4-benzylphenoxy)phenyl]-2-aminopropanoic acid] | 84 nM | – | 880 nM | –
8 | CN(CCOc1ccc(Cc2ccccc2)cc1)Cc1ccc(C(=O)O)cc1 [Example 6, [N-2-(4-benzylphenoxy)ethyl]-N-methyl-aminomethyl-4-benzoic acid] | 21 nM | – | 310 nM | –
9 | NCc1ccc(OCc2ccc(-c3ccccc3)cc2)cc1 [Example 1, 1-(4-phenylphenyl-1-methoxy)-4-aminomethylbenzene] | 300 nM | – | – | –
10 | NCc1cccnc1NCCOc1ccc(Cc2ccccc2)cc1 [Example 11, 2-(4-benzylphenoxy)ethylamino-3-aminomethylpyridine] | 300 nM | 180 nM | – | –
11 | CN(CCOc1ccc(Cc2ccccc2)cc1)Cc1ccccc1Oc1cccc(C(=O)O)c1 [Example 12] | 15 nM | 23 nM | 150 nM | –
12 | COC(=O)C(N)Cc1ccc(Oc2ccc(Cc3ccccc3)cc2)cc1 (stereo not shown) [Example 8, methyl 3-[4-(4-benzylphenoxy)phenyl]-2-aminopropanoate] | 120 nM | – | 790 nM | –
